Test results: patent US5714501A, “Piperidine derivatives” (priority 1995, dated 1998)
Like-named read-outs stand apart in the source and are kept apart here.

Columns and labels:
histamine H1 receptors [1] = biological target: T1, histamine H1 receptors (Cavia porcellus, UniProt P31389); assay: Inhibition of histamine-induced contraction of isolated guinea-pig ileum; conditions: 30 min incubation with compound, 37° C.; for Kb: read-out: activity on histamine H1 receptors, pA2 (functional) (converted)
T1 construct: guinea-pig cerebellum membrane proteins; from tissue; host or cells: guinea-pig cerebellum membranes
Procedure: (§1) (1) Inhibition of histamine-or LTD4 -induced contraction
(§2) The first three dose-response experiments are performed by adding histamine or leukotriene D4 cumulatively to the organ bath. After adequate washing, the ileal strip is incubated with the testing compound for 30 min. The dose-response experiment is then conducted again. The dissociation constant (Kb) of the receptor-antagonist complex is used as the parameter to indicate the potency of the testing compound and is calculated according to the Cheng-Prusoff equation.

histamine H1 receptors [2] = biological target: T1, histamine H1 receptors; assay: Inhibition of [3H]mepyramine binding to guinea-pig cerebellum membranes (and saturation experiment); conditions: 0.5 nM [3H]mepyramine, pH 7.5, 37° C., 30 min
Procedure: The method is based on that described previously. […] The reaction was stopped by the addition of 5 ml ice-cold phosphate buffer and followed by immediate filtration through Whatman GF/C filters. The filters were washed twice with about 20 ml cold buffer. The retained radioactivity was determined by a liquid scintillation counter after addition of 5 ml scintillation liquid.
In the saturation experiment, 10^-4 MR(-)dimethindene was used to define the non-specific binding.

leukotriene D4 receptors [3] = biological target: T2, leukotriene D4 receptors (Cavia porcellus, UniProt Q2NNR5); assay: Inhibition of LTD4-induced contraction of isolated guinea-pig ileum; parameters: A piece of ileum (about 2 cm length) isolated from guinea-pigs; from tissue; host or cells: guinea-pig ileum
T2 sequence (Q2NNR5 1-340): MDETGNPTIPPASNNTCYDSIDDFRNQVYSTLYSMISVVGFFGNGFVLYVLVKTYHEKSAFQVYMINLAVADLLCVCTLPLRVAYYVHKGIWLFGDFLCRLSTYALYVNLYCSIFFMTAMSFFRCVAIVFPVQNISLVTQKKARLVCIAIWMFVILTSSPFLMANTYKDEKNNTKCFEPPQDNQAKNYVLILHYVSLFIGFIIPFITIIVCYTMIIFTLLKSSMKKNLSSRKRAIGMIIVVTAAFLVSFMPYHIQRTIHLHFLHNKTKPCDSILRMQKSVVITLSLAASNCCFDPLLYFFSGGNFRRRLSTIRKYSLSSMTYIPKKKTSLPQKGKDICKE
Procedure: as §1, §2

leukotriene D4 receptors [4] = biological target: T2, leukotriene D4 receptors; assay: Inhibition of [3H]LTD4 binding to guinea-pig lung membranes (and saturation experiment); parameters: guinea-pig lung membrane proteins; from tissue; host or cells: guinea-pig lung membranes
Procedure: The method is a modification of that described in the literature*. […] The piperazine-N,N'-bis(2-ethanesulfonic)acid buffer contains 10 mM CaCl2, 10 mM MgCl2, 50 mM NaCl, 2 mM cysteine and 2 mM glycine. The reaction was terminated by the addition of 5 ml ice-cold tris-HCl/NaClbuffer (10 mM/, pH 7.5). The mixture was immediately filtered under vacuum (Whatman GF/C filters) and the filters was washed once with 20 ml ice-cold buffer. The retained radioactivity was determined by a liquid scintillation counter.
In the saturation experiment, 2 μM LTD4 was used to define the non-specific binding.

[5] = 0.2 nM [3H]-LTD4, guinea-pig lung membranes, pH 7.5, 22° C., 30 min
[6] = guinea-pig ileum, LTD4-induced contraction, 30 min incubation with compound, 37° C., read-out: activity on leukotriene D4 receptors, pA2 (functional) (converted)

T1 sequence (P31389 whole entry): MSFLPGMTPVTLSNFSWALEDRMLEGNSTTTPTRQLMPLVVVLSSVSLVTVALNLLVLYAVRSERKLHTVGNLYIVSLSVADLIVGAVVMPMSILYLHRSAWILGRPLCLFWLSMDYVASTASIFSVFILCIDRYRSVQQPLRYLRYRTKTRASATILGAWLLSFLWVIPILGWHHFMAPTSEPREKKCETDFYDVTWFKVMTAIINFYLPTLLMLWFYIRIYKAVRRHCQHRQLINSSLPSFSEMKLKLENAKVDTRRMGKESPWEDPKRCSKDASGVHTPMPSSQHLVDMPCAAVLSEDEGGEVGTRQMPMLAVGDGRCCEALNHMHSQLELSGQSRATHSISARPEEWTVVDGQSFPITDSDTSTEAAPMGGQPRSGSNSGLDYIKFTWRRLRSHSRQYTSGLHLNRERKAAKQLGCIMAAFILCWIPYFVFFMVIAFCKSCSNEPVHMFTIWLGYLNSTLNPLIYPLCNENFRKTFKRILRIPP

Row | Structure (SMILES) | Kb (histamine H1 receptors [1]) | Kd (histamine H1 receptors [2]) | Kd (leukotriene D4 receptors [4]; [5]) | Kb (leukotriene D4 receptors [3]; [6]) | also measured
1 | CCCc1c(OCC(O)COc2ccc3c(=O)cc(C(=O)O)oc3c2CCC)ccc(C(C)=O)c1O (stereo not shown) [FPL55712, reference compound] |  |  |  |  | activity on histamine H1 receptors, pA2 (functional) (histamine H1 receptors [1]): not active; activity on histamine H1 receptors, KD (binding) (histamine H1 receptors [2]): not active; Kb (leukotriene D4 receptors [3]): 120 nM
2 | O=C(N[C@@H](CN1CCC(=C2c3ccccc3CCc3ccccc32)CC1)C(=O)O)OCc1ccccc1 [Example 7, (S)-2-Benzyloxycarbonylamino-3-[4-(10,11-dihydro-5H-dibenzo[a,d]cyclohepten-5-ylidene)-piperidin-l-yl]propionic acid] | 33.1 nM | 871 nM | 6800 nM | 1120 nM | 
3 | CC(C)(C)c1ccc(C(O)CCCN2CCC(C(O)(c3ccccc3)c3ccccc3)CC2)cc1 (stereo not shown) [terfenadine, reference compound] |  |  |  |  | activity on leukotriene D4 receptors, KD (binding) (leukotriene D4 receptors [4]; [5]): not active; activity on leukotriene D4 receptors, pA2 (functional) (leukotriene D4 receptors [3]; guinea-pig ileum, LTD4-induced contraction, 30 min incubation with compound, 37° C.): not active

Second part, led by results:

Row | Kb (histamine H1 receptors [1]) | Kd (histamine H1 receptors [2]) | Kd (leukotriene D4 receptors [4]; [5]) | Kb (leukotriene D4 receptors [3]; [6]) | Structure (SMILES) | also measured
4 | 42.7 nM | 147 nM |  |  | O=C(N[C@@H](CN1CCC(=C2c3ccccc3C=Cc3ccccc32)CC1)C(=O)O)OCc1ccccc1 [Example 6, (S)-2-Benzyloxycarbonylamino-3-[4-(5H-dibenzo[a,d]cyclohepten-5-ylidene)piperidin-1-yl]propionic acid] | inhibition at 10 µM (leukotriene D4 receptors [4]; drug at the concentration of 10^-5 M, guinea-pig receptor preparations): 28%
5 | 10 nM | 412 nM | 1550 nM | 141 nM | O=C(N[C@H](CN1CCC(=C2c3ccccc3CCc3ccccc32)CC1)C(=O)O)OCc1ccccc1 [Example 8, (R)-2-Benzyloxycarbonylamino-3-[4-(10,11-dihydro-5H-dibenzo[a,d]-cyclohepten-5-ylidene)piperidin-1-yl]propionic acid] | 
